# Read-outs that look alike come from different tables or passages of the source.
# How the values were obtained:
# BSA = biological target: T1, BSA (Bos taurus, UniProt P02769); parameters: Intact protein LC/MS covalent labelling, fragments in pools of five, 200 uM each, 4 °C; details: 24 h, 4 °C, pool of five; 200 µM; covalent
# T1 construct: gene ALB
# Protocol: (§1) Incubations were performed at 200 μM for each compound and 2 μM of protein (10 μM for BSA) for 24 h at 4 °C with moderate shaking. Incubation buffers varied among proteins (PBS pH 7.4 for QSOX1 and BSA; 10 mM HEPES pH 7.5, 0.3 M NaCl, 0.5 mM TCEP for PCAF, UPS8, and NUDT7; […]; 10 mM Na2HPO4 pH 7.5 100 mM NaCl 5 mM β-mercaptoethanol for NV3CP; 20 mM Na phosphate pH 7.5 for NNMT; […]. The reaction was stopped by quenching with formic acid, 0.4% final concentration. Each protein was incubated with the electrophilic library in pools of five compounds per well. The pool’s composition maximized the difference in mass between fragments in the same well. Incubations were performed with each fragment at 200 μM, for 24 h at 4 °C, to allow the screening of proteins that are not stable for long time periods at higher temperatures. Following incubation, we used intact protein [compound left out] chromatography/mass spectrometry (LC/MS) to identify the fragments and quantify their labeling (Figure 3A). […] There was good agreement between the percent of labeling of NUDT7 by 100 random individual compounds and that obtained in pools of five (R^2=0.78; Figure S6 and Data set 2 in the Supporting Information).
# NUDT7 = biological target: T2, NUDT7 (Homo sapiens, UniProt P0C024); parameters: Intact protein LC/MS covalent labelling, fragments in pools of five, 200 uM each, 4 °C; details: 24 h, 4 °C, pool of five; 200 µM; covalent
# T2 construct: residues 14-235, E. coli, pNIC28-Bsa4, N-terminal His6 tag removed by TEV, construct 26672 Da
# Protocol: as §1
# PCAF = biological target: T3, PCAF (Homo sapiens, UniProt Q92831); parameters: Intact protein LC/MS covalent labelling, fragments in pools of five, 200 uM each, 4 °C; details: 24 h, 4 °C, pool of five; 200 µM; covalent
# T3 construct: gene KAT2B
# Protocol: as §1
# in vitro [1] = test: in vitro; parameters: species or system CCD841, HEK293; details: human, hb2 cells, read-out: HB-2 Cells Viability (%)
# in vitro [2] = test: in vitro; parameters: species or system HB2, HEK293; details: human, ccd841 cells
# in vitro [3] = test: in vitro; parameters: species or system HB2, CCD841; details: human, hek293 cells
# T2 sequence (P0C024 14-235): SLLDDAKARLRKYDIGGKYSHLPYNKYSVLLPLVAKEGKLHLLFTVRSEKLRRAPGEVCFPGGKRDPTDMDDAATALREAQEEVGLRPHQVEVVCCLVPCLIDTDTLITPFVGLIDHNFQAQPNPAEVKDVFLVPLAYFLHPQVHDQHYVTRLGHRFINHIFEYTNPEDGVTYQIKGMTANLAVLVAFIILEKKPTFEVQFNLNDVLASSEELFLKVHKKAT
# T3 sequence (Q92831 whole entry, the tested form may be a part): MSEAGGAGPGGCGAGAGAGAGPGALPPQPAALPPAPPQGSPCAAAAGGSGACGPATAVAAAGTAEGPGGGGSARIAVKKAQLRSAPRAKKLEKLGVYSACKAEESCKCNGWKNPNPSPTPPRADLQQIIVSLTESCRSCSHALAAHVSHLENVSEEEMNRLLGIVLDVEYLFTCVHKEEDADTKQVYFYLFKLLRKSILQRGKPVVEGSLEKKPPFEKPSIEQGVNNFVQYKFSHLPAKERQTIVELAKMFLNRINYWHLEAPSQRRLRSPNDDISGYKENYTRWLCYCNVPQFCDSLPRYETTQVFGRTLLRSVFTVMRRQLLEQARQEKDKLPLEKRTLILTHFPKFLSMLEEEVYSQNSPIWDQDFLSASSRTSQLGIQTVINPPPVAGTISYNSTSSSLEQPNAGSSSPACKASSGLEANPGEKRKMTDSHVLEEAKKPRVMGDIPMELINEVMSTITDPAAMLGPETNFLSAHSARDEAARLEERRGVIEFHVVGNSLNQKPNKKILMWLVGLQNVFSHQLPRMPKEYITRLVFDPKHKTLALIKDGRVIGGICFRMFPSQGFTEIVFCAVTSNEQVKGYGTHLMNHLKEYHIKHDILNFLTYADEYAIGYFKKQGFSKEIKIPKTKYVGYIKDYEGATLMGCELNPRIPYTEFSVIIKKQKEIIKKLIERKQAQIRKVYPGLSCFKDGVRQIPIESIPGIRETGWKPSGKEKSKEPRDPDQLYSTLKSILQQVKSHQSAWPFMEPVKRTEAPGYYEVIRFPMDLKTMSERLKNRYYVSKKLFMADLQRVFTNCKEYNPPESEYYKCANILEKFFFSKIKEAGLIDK
# T1 sequence (P02769 whole entry, the tested form may be a part): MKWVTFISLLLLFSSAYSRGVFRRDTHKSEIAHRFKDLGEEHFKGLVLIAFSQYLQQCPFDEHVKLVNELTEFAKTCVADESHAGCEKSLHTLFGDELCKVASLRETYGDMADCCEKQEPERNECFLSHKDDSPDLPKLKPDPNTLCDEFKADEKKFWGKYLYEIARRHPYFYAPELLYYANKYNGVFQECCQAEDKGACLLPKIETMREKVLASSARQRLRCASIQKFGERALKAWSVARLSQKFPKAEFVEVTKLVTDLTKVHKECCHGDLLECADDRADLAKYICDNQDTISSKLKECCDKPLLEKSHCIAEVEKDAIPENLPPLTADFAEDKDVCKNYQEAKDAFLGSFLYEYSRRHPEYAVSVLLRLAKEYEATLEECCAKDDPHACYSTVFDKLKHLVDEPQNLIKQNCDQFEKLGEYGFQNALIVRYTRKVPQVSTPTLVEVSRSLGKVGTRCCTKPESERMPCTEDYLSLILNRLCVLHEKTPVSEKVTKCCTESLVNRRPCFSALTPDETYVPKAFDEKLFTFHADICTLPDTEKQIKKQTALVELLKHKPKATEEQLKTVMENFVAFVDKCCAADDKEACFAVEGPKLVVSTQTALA
SMILES,BSA (BSA),NUDT7 (NUDT7),PCAF (PCAF),"viability at 48 h, 10 µM (in vitro [1]) [%]","viability at 48 h, 10 µM (in vitro [2]) [%]","viability at 48 h, 10 µM (in vitro [3]) [%]"
C=CC(=O)NC1c2ccccc2CC12CCOCC2 (centres unmarked) [PCM-0102445],0,0,0,103,106,111
C=CC(=O)N1CCC(NC(=O)c2cc(C)on2)CC1 [PCM-0102557],0,0,0,101,101,83.7
C=CC(=O)NCc1cnc(C)s1 [PCM-0102587],0.24,0,0,107,111,83.2
O=C(CCl)N1CCc2[nH]c3ccccc3c2C1 [PCM-0102591],0,0.22,0,7.3,61.8,7.5
C=CC(=O)NC1(c2nc(C)cs2)CCOCC1 [PCM-0102601],0,0,0,103,102,109
O=C(CCl)N1CC=C(c2c[nH]c3ccccc23)CC1 [PCM-0102631],0,–,0,15.3,77.7,46.3
C=CC(=O)N1CCCC(c2nc(C(F)(F)F)cn2C)C1 (centres unmarked) [PCM-0102633],0,0,0,99.9,118,106
C=CC(=O)NC1CCN(C(C)=O)Cc2cc(F)ccc21 (centres unmarked) [PCM-0102635],0,0,0,101,114,91.8
C=CC(=O)N1CCn2c(cc3cc(Cl)ccc32)C1 [PCM-0102661],0.18,0,0,81.5,109,87.1
O=C(CCl)NCc1ccc(Cl)cc1 [PCM-0102668],0,0,0,108,112,83.7
C=CC(=O)NC(C)(C)c1noc(C(C)(C)C)n1 [PCM-0102724],0,0,0,95.8,108,113
N#Cc1ccsc1NC(=O)CCl [PCM-0102768],–,–,0,46.1,74.6,45.9
Cc1cc(NC(=O)CCl)ccc1Br [PCM-0102770],0,0.21,0,2.5,15.6,1.6
O=C(CCl)Nc1ccc2c(c1)OC1(CCCC1)O2 [PCM-0102801],0,0.1,0,8.5,59.7,2.8
C=CC(=O)N1CCn2c(cc3c(Cl)cccc32)C1 [PCM-0102835],0,0,0,83.4,91.6,69.7
CN(C)c1ccc(NC(=O)CCl)cc1.Cl [PCM-0102859],0.22,0,0,105,110,87
O=C(CCl)NC1CCC(C(F)(F)F)CC1 (centres unmarked) [PCM-0102864],0,0,0,99.2,109,82.7
C=CC(=O)NC(C)c1ccc(C(F)(F)F)nc1Cl (centres unmarked) [PCM-0103053],0,–,0,99.6,113,85.5

# From publication PMC6556873, “Rapid Covalent-Probe Discovery by Electrophile-Fragment Screening” (Journal of the American Chemical Society, 2019)
